Like-named read-outs stand apart in the source and are kept apart here.
How the values were obtained:
[1] = cited from earlier work; for increase in apixaban exposure: phase I study, regression analysis
[2] = Exploratory exposure-response evaluation for bleeding and efficacy endpoints; format: in vivo, human
[3] = Population pharmacokinetic analysis of apixaban; format: in vivo, human; settings: for CL renal: male, human, plasma, oral
[4] = Simulation of apixaban steady-state exposure in VTE treatment population; set-up: species or system human
[5] = cited from earlier work
[6] = tested on: cytochrome P450 3A4 (CYP3A4); settings: minor contributions from CYP1A2, 2C8, 2C9, 2C19, 2J2; cited from earlier work
[7] = among 522 subjects from the acute VTE treatment studies

COc1ccc(-n2nc(C(N)=O)c3c2C(=O)N(c2ccc(N4CCCCC4=O)cc2)CC3)cc1 [apixaban, Apixaban]
half-life [1]: ~12 h | lower CL/F, NVAF subjects compared to phase I subjects [1]: 14% | oral bioavailability [1]: ~50% | renal clearance as share of total systemic clearance [1]: ~27% | volume of distribution from phase I studies [1]: ~21 L | decrease in exposure after coadministration with rifampin ([1]; healthy subjects, strong inducer of CYP3A4 and P-gp): 50% | increase in exposure after coadministration with ketoconazole ([1]; healthy subjects, strong inhibitor of CYP3A4 and P-gp): 2 fold | predicted median daily AUCss in NVAF subjects ([1]; nonvalvular atrial fibrillation subjects, 5 mg b.i.d.): 3,280 ng*hr/mL | exposure higher following coadministration with ketoconazole than apixaban alone ([1]; phase I clinical studies): ~100% | higher AUC, females compared to males ([1]; phase I studies): 15% | higher AUC, older subjects (>=65 years) compared to younger subjects (18-40 years) ([1]; phase I studies): 32% | increase in apixaban exposure ([1]; mild renal impairment): ~16% | increase in apixaban exposure ([1]; moderate renal impairment): ~29% | increase in apixaban exposure ([1]; severe renal impairment): ~44% | bleeding events (major or clinically relevant nonmajor) ([2]; among 178 subjects from the AMPLIFY-EXT study): eight | VTE/VTE-related death events [2, 7]: five | bleeding events (major or clinically relevant nonmajor) [2, 7]: 25 | reduction in Vc/F vs 85 kg reference subject ([3]; 50-kg subject): 24% | increase in Vc/F vs 85 kg reference subject ([3]; 120-kg subject): 20% | impact on apixaban exposure ([3]; age, sex, Asian race (also strong or moderate CYP3A4/P-gp inhibitors)): less than 25% | increase in AUC expected in severe renal impairment ([3]; expected from 27% renal contribution, renal clearance close to zero): ~40% | Asian subjects effect on CL/F (covariate parameter, fractional change) ([3]; final model): −0.168 | Female effect on CLNR/F (covariate parameter, fractional change) ([3]; final model): −0.223 | IIV (interindividual variability, CV%) of CL/F ([3]; final model): 33.1% | IIV (interindividual variability, CV%) of ka ([3]; final model): 50.2% | Q/F (apparent intercompartmental clearance) ([3]; final model): 1.62 L/h | Vp/F (apparent volume of peripheral compartment) ([3]; final model): 19.8 L | Vc/F (apparent volume of central compartment) ([3]; final model, reference VTE treatment subject): 32.1 L | ka, an evening dose ([3]; final population PK model, evening dose): 0.239 h⁻¹ | ka ([3]; final population PK model, morning or afternoon dose): 0.440 h⁻¹ | CL renal ([3]; CLNR/F (apparent nonrenal clearance), final model, reference VTE treatment subject): 42 mL/min | CL renal ([3]; CLR/F (apparent renal clearance), final model, reference VTE treatment subject (60 years, non-Asian male, 85 kg, cCrCL 100 mL/min)): 30.5 mL/min | lower daily AUC vs 60-year-old reference subject ([3]; predicted, 40-year-old male, no change in apparent renal clearance): ~6% | higher daily AUC vs 60-year-old reference subject ([3]; predicted, 80-year-old male, no change in apparent renal clearance): 5% | higher AUC compared to non-Asian subjects ([3]; predicted, Asian subjects): 20% | higher AUC than male subjects ([3]; predicted, female subjects): ~15% | higher AUC than reference subject with normal renal function ([3]; predicted, mild renal impairment (cCrCL of 65 mL/min)): ~17% | higher AUC (exposure) than reference subject ([3]; predicted, severe renal impairment (cCrCL of 15 mL/min)): 56% | decrease in CL/F ([3]; severe renal impairment): 36% | predicted median daily AUCss lower than in NVAF subjects ([4]; 5-mg b.i.d., VTE treatment population vs NVAF subjects): about 25% | fluctuation between peak and trough concentrations ([4]; predicted, VTE treatment subjects): ~2 fold | adjudicated major bleeding (primary safety endpoint) vs enoxaparin/warfarin ([5]; AMPLIFY study): statistically superior | number of major bleeding events, apixaban and placebo groups ([5]; AMPLIFY-EXT): low and similar | metabolism by CYP3A4 [6]: predominantly metabolized

Reference: PMC5445237 (CPT: Pharmacometrics & Systems Pharmacology, 2017)
